According to patent US9045423B2, “Prophylactic and/or therapeutic agent for anemia comprising tetrahydroquinoline compound as active ingredient” (KOWA COMPANY, LTD., priority 2009, dated 2015):

What was measured:
[1] = tested on: K562 cells, a human proerythroblast cell line; test: Hemoglobin production in K562 cells (fluorescence of the porphyrin ring); format: cell-based; settings: Homo sapiens, K562, 144 h; 6 μM test compound, 3 + 3 days incubation; non-stimulated state without compound = 100; read-out: amount of hemoglobin, % of control (6 μM)
Procedure: K562 cells (obtained from ATCC), which is a human proerythroblast cell line, were inoculated at a concentration of 1×10^5 cells/1 mL in each well of a 24-well plate, using complete medium (RPMI-1640 medium containing 10% bovine fetal serum), and 1 μL of a test compound at a 1000-fold concentration was added to each well. Subsequently, the cells were incubated for 3 days in a CO2 incubator (37° C., 5% CO2). The medium was exchanged, and the cells were further incubated for 3 days. The cells were collected and counted. Subsequently, the amount of hemoglobin produced in the cells was determined by adjusting the number of cells to 3×10^5 cells, and measuring the fluorescence of the porphyrin ring. That is, the cells collected by centrifugation were suspended in 500 μL of 2 M oxalic acid, and were heated to boil for 30 minutes. The cells were cooled, and then the fluorescence intensity was measured by using a fluorescence microplate reader (Spectra MAX GeminiEM; Molecular Devices Corp.) ([…]). The amount of hemoglobin in a non-stimulated state where no compound was added was designated as 100-, and the amount of hemoglobin (% of control) produced as induced by each of the compounds was determined.

[2] = tested on: HepG2 cells derived from human liver cancer; test: EPO production in HepG2 cells (EPO ELISA of culture supernatant); format: cell-based; settings: Homo sapiens; for activity at 3 µM: HepG2, 3 μM test compound, 48 hrs, 4% oxygen, non-stimulated state without compound = 100%, read-out: amount of EPO production, % of control (3 μM); for activity at 10 µM: HepG2, 48 h, final concentration 10 μM, non-stimulated state = 100%, read-out: enhancement of EPO production
Procedure: HepG2 cells derived from human liver cancer were inoculated in an amount of 5×10^4 cells per well on a 48-well plate, using minimum essential medium (MEM, Sigma-Aldrich Company) containing 10% bovine fetal serum. On the next day, the medium was exchanged with Dulbecco's modified eagle medium (DMEM (Sigma-Aldrich Company)) containing 10% bovine fetal serum without Phenol Red. Then, a test compound dissolved in DMSO was added thereto to obtain a final concentration of 3 μM or 10 μM, and the amount of medium was adjusted to 400 μL per well. The cells were incubated for 48 hrs in a CO2 incubator in which the oxygen concentration was adjusted to 4%, and then the culture supernatant was collected. The EPO concentration in the culture supernatant was immediately measured using an EPO ELISA kit (Roche Diagnostics GmbH). The method was carried out according to the operation manual.
The amount of EPO production in a non-stimulated state where no compounds were added, was designated as 100%, and the amount of EPO production (% of control) induced by each of the compounds was determined.

| Compound | activity at 6 µM [1] [%] | activity at 3 µM [2] [%] | activity at 10 µM [2] [%] |
| --- | --- | --- | --- |
| CCOC(=O)c1ccc2c(c1)C(Nc1ccc(-c3cnns3)cc1)CC(C)N2C(C)=O (centres unmarked) [Compound 171, Ethyl 1-Acetyl-2-methyl-4-{[4-(1,2,3-thiadiazol-5-yl)-phenyl]amino}-1,2,3,4-tetrahydroquinoline-6-carboxylate] | 243 | 333 | – |
| CCOC(=O)c1ccc2c(c1)C(Nc1ccc(-c3csc(C)n3)cc1)CC(C)N2C(C)=O (centres unmarked) [Compound 162, Ethyl 1-Acetyl-2-methyl-4-{[4-(2-methylthiazol-4-yl)-phenyl]amino}-1,2,3,4-tetrahydroquinoline-6-carboxylate] | 316 | 284 | – |
| CNC(=O)c1ccc2c(c1)C(Nc1ccc(-c3cnns3)cc1)CC(C)N2C(C)=O (centres unmarked) [Compound 174, 1-Acetyl-N,2-dimethyl-4-{[4-(1,2,3-thiadiazol-5-yl)-phenyl]amino}-1,2,3,4-tetrahydroquinoline-6-carboxamide] | 163 | 218 | – |
| CC(=O)N1c2ccc(C(=O)NC3CCCCC3)cc2C(Nc2ccc(N3CCOCC3)cc2)CC1C (centres unmarked) [Compound 178, 1-Acetyl-N-cyclohexyl-2-methyl-4-[(4-morpholinophenyl)-amino]-1,2,3,4-tetrahydroquinoline-6-carboxamide] | 388 | 370 | – |
| CC(=O)N1c2ccc(C(N)=O)cc2C(Nc2ccc(C3CCCCC3)cc2)CC1C (centres unmarked) [Compound 147, 1-Acetyl-4-[(4-cyclohexylphenyl)-amino]-2-methyl-1,2,3,4-tetrahydroquinoline-6-carboxamide] | 160 | – | 130 |
| CC(=O)N1c2ccc(C(=O)NC(C)C)cc2C(Nc2ccc(N3CCOCC3)cc2)CC1C (centres unmarked) [Compound 176, 1-Acetyl-N-isopropyl-2-methyl-4-[(4-morpholinophenyl)-amino]-1,2,3,4-tetrahydroquinoline-6-carboxamide] | 355 | 325 | – |
| CC(=O)N1c2ccc(C(=O)O)cc2C(Nc2ccc(-c3csc(C)n3)cc2)CC1C (centres unmarked) [Compound 163, 1-Acetyl-2-methyl-4-{[4-(2-methylthiazol-4-yl)-phenyl]amino}-1,2,3,4-tetrahydroquinoline-6-carboxylic acid] | 172 | 128 | – |
| CC(=O)N1c2ccc(C(=O)O)cc2C(Nc2ccc(-c3ncco3)cc2)CC1C (centres unmarked) [Compound 168, 1-Acetyl-2-methyl-4-{[4-(oxazol-2-yl)phenyl]-amino}-1,2,3,4-tetrahydroquinoline-6-carboxylic acid] | 204 | 144 | – |
| CC(=O)N1c2ccc(-c3n[nH]c(=O)o3)cc2C(Nc2ccc(N3CCOCC3)cc2)CC1C (centres unmarked) [Compound 134, 1-Acetyl-4-[(4-morpholinophenyl)-amino]-2-methyl-6-[1,3,4-oxadiazol-2(3H)-on-5-yl]-1,2,3,4-tetrahydroquinoline] | 298 | 157 | – |
| COC(=O)CCCCCNC(=O)c1ccc2c(c1)C(Nc1ccc(N3CCOCC3)cc1)CC(C)N2C(C)=O (centres unmarked) [Compound 157, Methyl 6-{1-Acetyl-2-methyl-4-[(4-morpholinophenyl)-amino]-1,2,3,4-tetrahydro-quinoline-6-carboxamido}-hexanoate] | 396 | – | 237 |
| CC(=O)N1c2ccc(C(=O)O)cc2C(Nc2ccc(-c3cnns3)cc2)CC1C (centres unmarked) [Compound 172, 1-Acetyl-2-methyl-4-{[4-(1,2,3-thiadiazol-5-yl)-phenyl]amino}-1,2,3,4-tetrahydroquinoline-6-carboxylic acid] | 168 | 152 | – |
| CC(=O)N1c2ccc(C(=O)O)cc2C(Nc2cccc(N3CCOCC3)c2)CC1C (centres unmarked) [Compound 179, 1-Acetyl-2-methyl-4-[(3-morpholinophenyl)-amino]-1,2,3,4-tetrahydroquinoline-6-carboxylic acid] | 124 | 138 | – |
| CC(=O)N1c2ccc(F)cc2C(Nc2ccc(C(=O)O)cc2)CC1C (centres unmarked) [Compound 137, 1-Acetyl-6-fluoro-4-[(4-carboxy-phenyl)amino]-2-methyl-1,2,3,4-tetrahydroquinoline] | 190 | 110 | – |
| CNC(=O)c1ccc2c(c1)C(Nc1ccc(C3CCCCC3)cc1)CC(C)N2C(C)=O (centres unmarked) [Compound 146, 1-Acetyl-4-[(4-cyclohexylphenyl)-amino]-N,2-dimethyl-1,2,3,4-tetrahydroquinoline-6-carboxamide] | 208 | 152 | – |
| CC(=O)N1c2ccc(C(=O)Nc3cccnc3)cc2C(Nc2ccc(Cl)cc2)CC1C (centres unmarked) [Compound 131, 1-Acetyl-4-[(4-chlorophenyl)-amino]-2-methyl-N-(3-pyridyl)-1,2,3,4-tetrahydroquinoline-6-carboxamide] | 263 | 153 | – |
| CC(=O)N1c2ccc(N3CCN(S(C)(=O)=O)CC3)cc2C(Nc2ccc(N3CCOCC3)cc2)CC1C (centres unmarked) [Compound 160, 1-Acetyl-2-methyl-6-[4-(methylsulfonyl)piperazin-1-yl]-4-[(4-morpholino-phenyl)amino]-1,2,3,4-tetrahydroquinoline] | 259 | 190 | – |
